These results are taken from US4650811A, “Ethenylphenol-indoles having antiarythmic utility” (Roussel Uclaf, priority 1984, dated 1987).

One data set deals with mice. In words: Acute toxicity after oral administration to mice. In kind it is in vivo. The procedure: The lethal doses LD0 for the different test compounds were evaluated after oral administration to mice and the maximum dose not causing any mortality in 8 days was called LD0.
For the next data set, the system named is Rat caudal arteries. The data set is described as follows: Anti-calcic activity in vitro: inhibition of K+-depolarized, Ca2+-induced contraction of rat caudal arteries. Conditions: rat caudal artery, depolarized with 100 mM K+, Ca2+ 0.1 to 3.0 mM, 37° C. The procedure: Rat caudal arteries were cut into a spiral and were attached to tension sensors and were kept in tanks of […] of Krebs buffer-sodium bicarbonate (NaCl: 120.8 mM, KCl: 5.9 mM, MgCl2 : 1.2 mM, NaH2 PO4 : 1.2 mM, NaHCO3 : 15.5 mM, glucose: 12.6 mM) at 37° C. gassed with a mixture of O2 : 95% - CO2 : 5%. The preparations were depolarized with a buffer solution with a concentration of 100 mM in K^+ ions (NaCl: 26.7 mM, KCl: 100 mM, MgCl2 : 1.2 mM, NaH2 PO4 : 1.2 mM, NaHCO3 : 15.5 mM, glucose: 12.6 mM). Calcium chloride was added in a volume of 250 μ1 to obtain a range of increasing concentrations of Ca^2+ ions from 0.1 to 3.0 mM. The contractions of the arteries were recorded and a control range was established in this way. The operation was repeated every 15 minutes with the Ca^2+ range of ions and the preparation was washed four times after each range.
When a stable response had been obtained, the operation with the range of Ca^2+ ions was carried out in the presence of different concentrations of the product under test until a stable response was obtained. The contractions of the arteries depend on the entry of the Ca^2+ ions into the cells of the smooth muscles and are caused by the depolarization of the smooth muscle by the K^+ ions and by the action of the noradrenaline liberated at the presynaptic level. By repeating the operation with the arteries denervated by the action of 6-OH dopamine, the specific action due to the noradrenaline was suppressed.

For the next data set, the target named is T1, β2 - adrenergic receptor (Rattus norvegicus, UniProt P10608).
T1 construct: The cerebelli removed from the brains of male rats; from tissue; host or cells: rat cerebellum, membrane preparation
In words: β2 - adrenergic receptor affinity (3H dihydroalprenolol displacement, rat cerebelli). The format is binding. The conditions noted are these: ARL=100 CD/CX relative to propranolol; 3H dihydroalprenolol 10^-9 M, 37° C., 10 minutes. The procedure: The cerebelli removed from the brains of male rats weighing on the average 150 g were homogenized in 90 ml of 0.32 M sucrose and after centrifuging the homogenized mixture at 1,000 g for 20 minutes at 0° C., the supernatant was centrifuged at 30,000 g for 15 minutes at 0° C. to +4° C. The residue was suspended in 120 ml of Tris HCl 50 mM buffer pH 7.7, and centrifuged at 30,000 g for 15 minutes at 0° to +4° C. The new residue obtained was suspended in 480 ml of Krebs Tris HCl buffer, pH 7.7. 2 ml of the suspension were then incubated at 37° C. for 10 minutes in the presence of 3H dihydroalprenolol at a concentration of 10^-9 M:
(ii) with increasing concentrations of the product under test
(iii) to determine the non-specific fixation, with non-radio-active propranolol at a concentration of 10^-5 M. The incubated suspensions were filtered on Whatman GF/C and the filters were washed three times with 5 ml of Krebs Tris HCl buffer pH 7.7 at 0° C.
The radio-activity of the filters was measured by liquid scintillation. The affinity of the test product for β2 - adrenergic receptors was given relative to propranolol as reference product.
CD=concentration of propranolol inhibiting 50% of the specific fixation of ^3 H dihydroalprenolol:
CX=concentration of the product under test inhibiting 50% of the specific fixation of the ^3 H dihydroalprenolol.

In a further data set the test system is α2 - adrenergic receptor. In words: α2 - adrenergic receptor affinity (3H rauwolscine displacement, rat cortices). In kind it is binding. Conditions: ARL=100 CD/CX relative to phentolamine, 25° C., 45 minutes. The procedure:
10 cortices removed from the brains of male rats weighing on the average […] were homogenized in 90 ml of 0.32 M sucrose and after centrifuging the homogenized mixture at 1,000 g for 10 minutes at 0° C., the supernatant was centrifuged at 30,000 g for 10 minutes at 0° C. to +4° C. The residue was suspended in 240 ml of Tris HCl 50 mM buffer, pH 7.7 and centrifuged at 30,000 g for 15 minutes at 0° to +4° C. The new residue obtained was suspended in 480 ml of NaKPO4 50 mM buffer, pH 7.4. Then, 2 ml of suspension were incubated for 45 minutes at 25° C. in the presence of ^3 H rauwolscine at a concentration of […]:
(§1) (ii) with increasing concentrations of the product under test, or
(iii) to determine the non-specific fixation, with non-radioactive phentolamine at a concentration of 10^-5 M.
The incubated suspensions were filtered on Whatman GF/C and the filters were washed three times with 5 ml of NaKPO4 buffer, pH 7.4, at 0° C. The radio-activity of the filters was measured by liquid scintillation. The affinity of the product under test for the α2 - adrenergic receptors were given relative to phentolamine as reference product. CD=concentration of phentolamine inhibiting 50% of the specific fixation of ^3 H rauwolscine:
CX=concentration of the product under test inhibiting 50% of the specific fixation of ^3 H rauwolscine.

The next data set deals with T2, β1 - adrenergic receptor (Rattus norvegicus, UniProt P18090).
T2 construct: 10 cortices removed from the brains of rats; from tissue; host or cells: rat brain cortex, membrane preparation
The data set is described as follows: β1 - adrenergic receptor affinity (3H dihydroalprenolol displacement, rat cortices). The format is binding. Conditions: ARL=100 CD/CX relative to propranolol; 3H dihydroalprenolol 10^-9 M, 37° C., 10 minutes. As to the method:
10 cortices removed from the brains of rats weighing on the average 150 g were homogenized in 90 ml of 0.32 M sucrose and after centrifuging the homogenized mixture at 1,000 g for 20 minutes at 0° C., the supernatant was centrifugated at 30,000 g for 15 minutes at 0° C. to +4° C. The residue was suspended in 120 ml of Tris HCl 50 mM buffer pH 7.7 and centrifuged at 30,000 g for 15 minutes at 0° C. to +4° C. The new residue obtained was suspended in 480 ml of Krebs Tris HCl 50 mM buffer, 7.7 pH. Then, 2 ml of the suspension were incubated for 10 minutes at 37° C. in the presence of ^3 H dihydroalprenolol at a concentration of 10^-9 M:
as §1
(iii) to determine the non-specific fixation, with non-radioactive propranolol at a concentration of 10^-5 M.
The incubated suspensions were filtered on Whatman GF/C and the filters were washed three times with 5 ml of Krebs Tris HCl buffer pH 7.7 at 0° C. The radio-activity of the filters was measured by liquid scintillation. The affinity of the product for the adrenergic receptors was given relative to propranolol as reference product,
CD=concentration of propranolol inhibiting 50% of the specific fixation of the ^3 H dihydroalprenolol: CX=concentration of the product under test inhibiting 50% of the specific fixation of the ^3 H dihydroalprenolol.

In data set [1] the test system is disorders of the cardiac rhythm (aconitine) in rats. The data set is described as follows: Anti-arrhythmic activity in rats (aconitine-induced disorders of the cardiac rhythm). The format is in vivo, rat. Conditions: intravenous, aconitine 10 μg/min five minutes after product, in comparison with controls. As to the method: Male rats weighing 300-350 g anesthetized by intraperitoneal route with 1.20 g/Kg of urethane were tracheotomized and submitted to artifical respiration (40-50 insufflations of 3 ml/minute). Needles were implanted sub-cutaneously to record the electro-cardiogram of the rats on the signal in derivation DII. The products under test were administered by intravenous route.
Five minutes after the product was administered, the jugular vein of the rats was perfused with 10 μg/min. of an aconitine solution and the time of appearance of disorders of the cardiac rhythm was noted. The results were expressed in percentage of the extension of the time of appearance of disorders of the cardiac rhythm in comparison with controls and as a function of the dose of the product under test.

Data set [2] relates to arterial pressure of male rats of Wistar strain. The data set is described as follows: Hypotensive activity (carotid arterial pressure in anesthetized rats). In kind it is in vivo, rat (Wistar). Conditions: 1 mg/Kg, intravenous, vs initial control arterial pressure. The procedure:
The hypotensive activity was studied on male rats of Wistar strain weighing about 300 g and anesthetized with 50 mg/Kg by intravenous route of sodium pentobarbital. The product tested was administered by intravenous route in the jugular vein and the pressure in the carotid artery was measured before and after administration of the product tested. The following table reports the variations expressed in percentage of the arterial pressure after administration of the product tested by comparison with the initial control arterial pressure.

T2 sequence (P18090 whole entry): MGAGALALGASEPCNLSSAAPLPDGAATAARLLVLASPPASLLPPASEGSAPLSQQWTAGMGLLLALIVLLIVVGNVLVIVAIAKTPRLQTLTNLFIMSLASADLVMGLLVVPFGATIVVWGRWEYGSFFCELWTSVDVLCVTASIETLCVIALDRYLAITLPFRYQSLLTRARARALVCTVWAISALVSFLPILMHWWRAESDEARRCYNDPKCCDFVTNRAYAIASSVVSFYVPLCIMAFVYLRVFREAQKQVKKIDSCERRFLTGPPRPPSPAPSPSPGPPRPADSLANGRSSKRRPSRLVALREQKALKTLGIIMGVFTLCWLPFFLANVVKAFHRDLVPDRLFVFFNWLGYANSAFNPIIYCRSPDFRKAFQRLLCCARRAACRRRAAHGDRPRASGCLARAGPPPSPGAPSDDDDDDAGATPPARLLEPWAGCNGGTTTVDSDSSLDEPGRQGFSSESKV
T1 sequence (P10608 whole entry): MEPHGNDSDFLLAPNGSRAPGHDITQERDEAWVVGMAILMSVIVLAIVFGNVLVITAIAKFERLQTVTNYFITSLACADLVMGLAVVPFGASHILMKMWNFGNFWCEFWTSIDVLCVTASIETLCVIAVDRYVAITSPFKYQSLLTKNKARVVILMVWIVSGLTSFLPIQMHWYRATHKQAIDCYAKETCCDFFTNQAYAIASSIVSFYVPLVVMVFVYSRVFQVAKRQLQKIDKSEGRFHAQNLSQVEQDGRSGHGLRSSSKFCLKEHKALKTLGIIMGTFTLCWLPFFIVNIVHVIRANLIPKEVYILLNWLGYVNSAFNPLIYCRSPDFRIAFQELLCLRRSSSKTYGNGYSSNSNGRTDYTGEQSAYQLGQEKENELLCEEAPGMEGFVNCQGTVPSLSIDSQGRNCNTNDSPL

As for `CC(C)(C)NCC(O)COc1ccc(/C=C/c2cccc3c2CC(=O)N3)cc1` (stereo not drawn) [Example 5, 1,3-dihydro-4-[2-[4-[3-[(1,1-dimethylethyl)-amino]-2-hydroxypropoxy]-phenyl]-ethenyl]-2H-indol-2-one], in the data set with mice, the “LD0 (maximum dose not causing any mortality in 8 days)” value was above 100 mg/kg. Further, the IC50 (in general, the concentration at which inhibition is half-maximal) in the data set with Rat caudal arteries is 2.5 µM.

Regarding `CC(C)(C)NCCCOc1ccccc1CCc1cccc2[nH]ccc12` [Example 12, N-(1,1-dimethylethyl)-3-[2-[2-(1H-indol-4-yl)-ethyl]-phenoxy]-propanamine], in the data set with Rat caudal arteries, the half-maximal inhibitory concentration (IC50) worked out at 0.3 µM.

With `CC(C)NCC(O)COc1ccc(/C=C/c2cccc3[nH]ccc23)cc1` (stereo not drawn) [Example 4], the “ARL (relative affinity)” value at β2 - adrenergic receptor is 0.03%; with α2 - adrenergic receptor it was 0.0%; on β1 - adrenergic receptor, 1.0%. In the data set on mice, the “LD0 (maximum dose not causing any mortality in 8 days)” value was 60 mg/kg. Moreover, the IC50 with Rat caudal arteries was determined as 3.5 µM.

Regarding `CC(C)(C)NCCCOc1ccccc1/C=C/c1cccc2[nH]ccc12` [Example 6, N-(1,1-dimethylethyl)-3-[2-[2-(1H-indol-4-yl)-ethenyl]-phenoxy]-propanamine], the “Percentage of extension of time of appearance of disorders of the cardiac rhythm” value (shortened to “Percentage”) in data set [1] (5 mg/Kg) turned out to be 49%. The “LD0 (maximum dose not causing any mortality in 8 days)” value with mice was above 400 mg/kg. Moreover, the IC50 in the data set on Rat caudal arteries came out at 2 µM.

On to `CC(C)(C)NCC(O)COc1ccccc1/C=C/c1cccc2c1CC(=O)N2` (stereo not drawn) [Example 9, 1,3-dihydro-4-[2-[2-[3-[(1,1-dimethylethyl)-amino]-2-hydroxypropoxy]-phenyl]-ethenyl]-2H-indol-2-one], for which the “Percentage” value in data set [1] (5 mg/Kg) was determined as 167%. In addition, the IC50 with Rat caudal arteries stood at 1.4 µM.

Regarding `CC(C)(C)NCC(O)COc1ccc(/C=C/c2cccc3[nH]ccc23)cc1` (stereo not drawn) [Example 3, 1-[(1,1-dimethylethyl)-amino]-3-[4-[2-(1H-indol-4-yl)-ethenyl]-phenoxy]-2-propanol], the “ARL (relative affinity)” value is 0.1% at β2 - adrenergic receptor, 0.7% with α2 - adrenergic receptor and 0.8% at β1 - adrenergic receptor. The “LD0 (maximum dose not causing any mortality in 8 days)” value with mice is above 100 mg/kg. Moreover, the IC50 in the data set on Rat caudal arteries is 0.6 µM.

With `CC(C)(C)NCCOc1ccccc1/C=C/c1cccc2[nH]ccc12` [Example 11, N-(1,1-dimethylethyl)-2-[2-[2-(1H-indol-4-yl)-ethenyl]-phenoxy]-ethanamine (trans E)], the “Percentage” value in data set [1] (5 mg/Kg) was 41%. Moreover, the “LD0 (maximum dose not causing any mortality in 8 days)” value with mice was 200 mg/kg.

As for `CC(C)NCC(O)COc1ccccc1/C=C/c1cccc2[nH]ccc12` (stereo not drawn) [Example 1, 1-[2-[2-(1H-indol-4-yl)-ethenyl]-phenoxy]-3-[isopropyl-amino]-2-propanol], the “ARL (relative affinity)” value on β2 - adrenergic receptor turned out to be 18%; in the data set on α2 - adrenergic receptor it was 0.1%; at β1 - adrenergic receptor, 92.5%. Besides, the “% Variation of the arterial pressure” value in data set [2] (1 min. after administration) is given as -11%; in data set [2] (5 min. after administration) it was -11%; in data set [2] (10 min. after administration) it was -12%; in data set [2] (30 min. after administration), -13%. For the same compound, the “LD0 (maximum dose not causing any mortality in 8 days)” value in the data set with mice is above 100 mg/kg. Further, the IC50 with Rat caudal arteries was found to be 4 µM.

`CC(C)(C)NCC(O)COc1ccccc1CCc1cccc2[nH]ccc12` (stereo not drawn) [Example 8, 1-[(1,1-dimethylethyl)-amino]-3-[2-[2-(1H-indol-4-yl)-ethyl]-phenoxy]-2-propanol]: in data set [1] (5 mg/Kg), the “Percentage” value was found to be 162%. In addition, the “LD0 (maximum dose not causing any mortality in 8 days)” value in the data set on mice was above 400 mg/kg. The IC50 with Rat caudal arteries came out at 1.5 µM.

As for `CC(C)(C)NCC(O)COc1ccccc1/C=C/c1cccc2[nH]ccc12` (stereo not drawn) [Example 2, 1-[(1,1-dimethylethyl)-amino]-3-[2-[2-(1H-indol-4-yl)-ethenyl]-phenoxy]-2-propanol], the entries for the “Percentage” value in data set [1] (5 mg/Kg) and in data set [1] (10 mg/Kg) were 30% and 110%, respectively. For the same compound, the results for the “ARL (relative affinity)” value at β2 - adrenergic receptor and at β1 - adrenergic receptor were 172% and 198%, respectively. The “% Variation of the arterial pressure” value is given as -17% in data set [2] (1 min. after administration), -10% in data set [2] (5 min. after administration), -10% in data set [2] (10 min. after administration) and -14% in data set [2] (30 min. after administration). Further, the “LD0 (maximum dose not causing any mortality in 8 days)” value in the data set with mice was above 100 mg/kg. For the same compound, the IC50 with Rat caudal arteries stood at 1.2 µM.
